Each structure is given as a SMILES string.

The term melting point denotes the temperature, or range, at which the solid turns liquid. `OC1CC2(CCNC2)c2ccc(Cl)c(Cl)c21` (stereo unspecified) gave a melting point of 167 to 170 °C.

The compound `COc1cc(C(=O)N2Cc3ccc(C(=O)NCc4c(CO)cnc(C)c4O)n3Cc3ccccc32)ccc1-c1ccccc1C` came in with a melting point of 179 °C.

Regarding `CCOC(=O)C1=C(N)N=C(SCC)C(C(=O)OCC)C1c1cccc(C#N)c1` (stereo unspecified), the melting point amounted to 153 °C.

The compound `CC(=O)Nc1cc(Oc2ccc3c(C(=O)Nc4ccc(CN5CCN(C)CC5)cc4)cccc3c2)ncn1` showed a melting point of 238 to 242 °C.

For `C[C@H]1C[C@@](O)(c2cccc(Sc3ccc4c(c3)CC(=O)N4C)c2)CCO1`, the melting point was 110 to 111 °C.

Turning to `CC(C)=CCCC(C)=CCS(=O)c1ccc2ccccc2c1` (stereo unspecified), the melting point lay within 74 to 76 °C.

On to `Nc1ncc(CN2CC=C(c3ccc(F)cc3)CC2)c(N)n1`, for which the melting point came to 265 °C.

`O=C(C=Cc1ccc(N2CCCC2)cc1)c1ccc2c(c1)CCCC2`: the melting point lay within 167 to 169 °C.

`CC1(COC(=O)N2CCN(c3ccc(OC(F)(F)F)cc3)CC2)Cn2cc([N+](=O)[O-])nc2O1` (stereo unspecified): the melting point is 138 to 140 °C.

The compound `CCCc1cc(OCc2ccc(-c3ccccc3-c3nnn(C(c4ccccc4)(c4ccccc4)c4ccccc4)n3)cc2)c(C(=O)OC)c(C)n1` came in with a melting point of 61 to 64 °C.

Turning to `Cc1[nH]n(Cc2ccc(C(N)=O)cc2)c2nc(-c3ccncc3)nc(=O)c1-2`, the melting point was > 300 °C.

Compound `COc1cc2c(cc1OC)-c1c(-c3ccccc3)sc(=N)n1CC2` gave a melting point of 123 to 125 °C.

`CC1=NN(c2ccccc2)C(=O)C1C=O` (stereo unspecified) had a melting point of 178 to 180 °C.

In turn, `O=C(CCl)Oc1ccc(OC(=O)CCl)cc1` registered a melting point of 127 to 128 °C.

For `O=C(NCCN1CCN(c2cccc(Cl)c2)CC1)NC12CC3CC(CC(C3)C1)C2`, the melting point was 136 to 137 °C.

The compound `CC1=C(C(=O)OCC[Si](C)(C)C)C(c2cccc([N+](=O)[O-])c2)C(C(=O)OCC[Si](C)(C)C)=C(C)N1` registered a melting point of 120 °C.

Consider `Cc1cc(C)cc(Sc2c(C(C)C)nc(C=NN)n2C)c1`, for which the melting point is 118 to 119 °C.

The compound `CCc1ccc2ncc(NC(=O)C=Cc3cc(OC)c(OC(C)=O)c(OC)c3)c(-c3ccccc3Cl)c2c1` came in with a melting point of 136 to 137 °C.

`N#Cc1ccc2cc(S)ccc2c1` displayed a melting point of 113 to 115 °C.

The compound `CC(CCCC(=NO)C(=O)O)(c1ccc(OCc2ccc3ccccc3n2)cc1)c1ccc(OCc2ccc3ccccc3n2)cc1` gave a melting point of 78 to 80 °C.

`COC(=O)c1ccc(-n2cccc2)cc1`: the melting point lay in the range of 128 to 129 °C.

As for `COc1ccc(CCNC(=O)CCc2ccccc2C(=O)NCCc2ccccc2)cc1OC`, the melting point lay in the range of 122 to 123 °C.

The compound `CC1=NN(c2ccc(Cl)cc2)C(=O)C1C(=O)Nc1ccc(F)cc1` (stereo unspecified) gave a melting point of 109 to 113 °C.

`O=C(O)c1ccc(CSc2nnc(S)s2)cc1`: the melting point was 230 to 232 °C.

With `COc1ccc(-c2ccc3c(c2)C=C(C(=O)Nc2ccc(CN(C)C4CCC5(CC4)OCCO5)cc2)CCS3)cc1`, the melting point fell in the range of 198 to 201 °C.

In turn, `O=C(Nc1cnc2c(c1)nc1n2CCC1O)c1cc2cc(F)ccc2n1Cc1cccc(F)c1` (stereo unspecified) returned a melting point of 288 to 290 °C.

In the case of `N#Cc1ccc2[nH]c3ccc(C#N)cc3c2c1`, the melting point came to 360 °C.

`CC(C)CC1OC[C@@H]2CCCN2C1=O` (stereo partly specified) returned a melting point of 61 to 65 °C.

In the case of `Cc1cccc(C(=O)O)c1OC1CCOC1=O` (stereo unspecified), the melting point lay within 129 to 131 °C.

`Cc1c(OCc2ccccc2)ccc2cncn12` came in with a melting point of 52 to 54 °C.

On to `Cc1ccc2c3c(c(=O)oc2c1)CNCC3`, for which the melting point fell in the range of 128 to 130 °C.

In the case of `C[C@H](NC(=O)C1(C)Sc2ccccc2NC1=O)C(=O)N[C@H](CCC(=O)O)C(N)=O` (stereo partly specified), the melting point lay within 124 to 125 °C.

In the case of `Cc1cc2c(cc1C)SC(CCCBr)C(=O)N2` (stereo unspecified), the melting point lay in the range of 151 to 153 °C.

The compound `C[C@@H]1S[C@@H](C(=O)Nc2ccc(CN3C(=O)CSC3=O)cc2)Cc2cc3c(cc2C1=O)OCO3` showed a melting point of 232 to 235 °C.

Turning to `CC(=O)OCC(=O)C1C(C)CC2C3CC(Cl)C4=CC(=O)C=CC4(C)C3(Cl)C(O)CC21C` (stereo unspecified), the melting point worked out at 238 °C.

For `N#Cc1ccc(N(Cc2ccc3c(c2)CNS(=O)(=O)O3)n2ccnc2)cc1`, the melting point is 190 °C.

As for `O=C(O)c1ccc2nc(-c3ccccc3)c(-c3ccccc3)nc2c1`, the melting point is 290 to 292 °C.

`C#CCN1C(=O)c2ccccc2C1OC` (stereo unspecified) had a melting point of 85 to 87 °C.

The compound `O=c1ncnc2cc3[nH][nH]cc3cc12` displayed a melting point of 330 °C.

The compound `CC(C)Nc1nc2cc(F)c(F)cc2n1[C@H]1O[C@@H](CO)[C@H](O)[C@@H]1O` gave a melting point of 156 to 158 °C.

For `CCOC(=O)/C=C/c1cc(C(C)C)c(OC(C)=O)c2c(C)cccc12`, the melting point was 122 to 123 °C.

`CCN(CC)S(=O)(=O)c1ccc2c(c1)S(=O)(=O)NC(C1CCCCC1)N2` (stereo unspecified): the melting point was 207 to 209 °C.

In turn, `CC(=O)c1ccc2c(c1)N(C1CCN(CCc3ccc(F)cc3)CC1)CC2` yielded a melting point of 90 to 92 °C.

For the compound `CCCCCc1c(C(=O)O)nn(-c2ccc(Cl)cc2Cl)c1-c1ccc(Cl)cc1`, the melting point is 187 °C.

Turning to `O=C(N[C@H]1CCc2c(F)cc(F)cc2C1)C(F)(F)F`, the melting point lay within 160 to 161 °C.

The compound `NC(CCOc1ccncc1)C(=O)c1ccccc1CO` (stereo unspecified) returned a melting point of 108 to 109 °C.

Compound `CON(C)C(=O)c1cc(Cl)nc(Cl)c1` gave a melting point of 69 to 70 °C.

`O=C1CCN(c2cc(Cl)cc3cccnc23)CC1` displayed a melting point of 223 to 225 °C.

The compound `O=C(O)c1cc(-n2c(-c3ccc(Br)cc3)cc3c2CCCC3)ccc1O` came in with a melting point of 231 to 232 °C.

As to `Oc1ccc(-c2nnc(CSCCCCOc3ccccc3)o2)cc1`, the melting point was in the range of 129 to 130 °C.

The compound `CCCCCCCCCCCCc1c2c(=O)c3ccccc3c2c(CCCCCCCCCCCC)c2c(=O)c3ccccc3c12` returned a melting point of 123 to 124 °C.

In turn, `O=[N+]([O-])c1ccc(-c2cc(-c3ccc(Cl)cc3)[nH]c2C(F)(F)F)s1` yielded a melting point of 65 to 66 °C.

On to `Cn1cccc1CCNCC(O)COc1cccc2[nH]ccc12` (stereo unspecified), for which the melting point is 105 to 106 °C.

`COc1ccc(C2C(C(=O)/C=C/c3ccc(OC)c(OC)c3)C(=O)CC(c3ccc(OC)c(OC)c3)C2[N+](=O)[O-])cc1` (stereo unspecified) registered a melting point of 158 to 160 °C.

`CC(=O)NCc1ccc(C#Cc2ccc3c(c2)C(C)(C)CCC3(C)C)cc1` registered a melting point of 220 to 223 °C.

On to `CC(C)(C)OC(=O)N1CCCC(Nc2cc(-c3ccc(F)c(NC(=O)c4cnc(C(C)(C)C)cn4)c3)n[nH]c2=O)C1` (stereo unspecified), for which the melting point was 120 to 121 °C.

`COc1ccc(OC)c2c1CCC(O)C2` (stereo unspecified) came in with a melting point of 128 to 129 °C.

The compound `CC1CCC(Nc2c(C#N)c3ccccc3n2C)=CC1=O` (stereo unspecified) returned a melting point of 194 to 195 °C.

In the case of `Cc1cc(C)c2c(c1)OS(=O)(=O)C(=Cc1ccc(N(C)C)cc1)C2=O`, the melting point was in the range of 214 to 217 °C.

Compound `CNCC1Cc2cc(C(F)(F)F)cc(-c3cc(F)ccc3F)c2O1` (stereo unspecified) displayed a melting point of 138 to 140 °C.

`CCCCOCCOc1ccc(-c2ccc3c(c2)C=C(C(=O)O)CCN3c2ccc(S(N)(=O)=O)cc2)cc1`: the melting point fell in the range of 185 to 195 °C.

`O=C(c1ccccc1)C1CCN(CC2CN(c3ccccc3)C(=O)O2)CC1` (stereo unspecified) displayed a melting point of 104 to 105 °C.

In turn, `O=C(CCc1ccc(Cl)cc1)Cn1ccnc1` gave a melting point of 172 to 174 °C.

With `O=C(OCc1ccc(-c2ccc(N3C[C@H](Cn4ccnn4)OC3=O)cc2F)cn1)N1CCOCC1`, the melting point was 131 to 133 °C.

`O=C(O)c1ccc(C(=O)N2Cc3cccn3Cc3ccccc32)cc1` had a melting point of 210 to 214 °C.

The compound `N#Cc1c(Br)c(C(F)(F)F)n(CBr)c1-c1ccc(Cl)cc1` came in with a melting point of 131 to 132 °C.

As for `Fc1ccc(-c2ccc3[nH]c4c(ccc5cc[nH]c54)c3c2)c(F)c1`, the melting point was > 250 °C.

Turning to `O=C(Nc1ccc2ccc(Cl)nc2n1)c1ccccc1Cl`, the melting point was 180 °C.

As for `CC1(C)Cc2cc(Cl)ccc2C=[N+]1[O-]`, the melting point fell in the range of 64.5 to 66.5 °C.

As to `FC(F)(F)c1onc(-c2ccc(Cl)o2)c1-c1ccccc1`, the melting point was in the range of 55 to 57 °C.

In turn, `O=C1CCC(CCC(=O)OCc2ccc(Cl)cc2)N1` (stereo unspecified) gave a melting point of 63 to 64 °C.

On to `O=C(O)[C@H]1C=C[C@H](c2ccccc2)n2c(=O)n(CCCl)c(=O)n21` (relative stereo), for which the melting point lay within 141 to 143 °C.

As to `COc1ccc(N(CCC(=O)N(C)CC(=O)O)C(=O)c2ccc(Cl)cc2)cc1`, the melting point lay in the range of 129 to 131 °C.

As to `O=C(c1ccc(F)cc1)C1CCN(CCCn2c(=O)[nH]c3cc(Cl)c(Cl)cc32)CC1`, the melting point was in the range of 198 to 202 °C.

`CCOC(=O)Cc1ccc(-c2nc(COc3ccc(COc4nn(-c5ccccc5)cc4/C=C/c4csc(COC(=O)c5ccccc5)n4)cc3OC)c(C)o2)cc1` yielded a melting point of 116 to 117 °C.

The compound `COC(=O)c1ccccc1Oc1nc(Oc2ccccc2C(=O)OC)nc(Oc2ccccc2C(=O)OC)n1` gave a melting point of 58 to 63 °C.

`COc1ccccc1-c1ccc2cnc(Nc3cc4c(cc3F)CCC(=O)N4)nn12`: the melting point lay in the range of 300 to 305 °C.

As to `O=C1N(Cc2ccc(Cl)s2)c2ccccc2C1(O)c1cc(OCc2ccccc2)ccc1O` (stereo unspecified), the melting point was 174 to 175 °C.

On to `CC(=O)Nc1nc(CC(=O)O)ns1`, for which the melting point was in the range of 161 to 163 °C.

On to `CC1(C(=O)NCCc2ccc(CCC(=O)O)cc2)C=CN=N1` (stereo unspecified), for which the melting point fell in the range of 202 to 205 °C.

The compound `O=C(O)Cc1cc(C(=O)c2c(F)cccc2F)ccc1O` gave a melting point of 120 °C.

Compound `CC1(C)CC(=C(c2ccc(O)cc2)c2ccc(F)cc2)CC(C)(C)C1` returned a melting point of 134 to 135 °C.

The compound `O=C(Nc1ccc(C(F)(F)F)cc1)C1=NN(c2ccc(Cl)c(Cl)c2)C(c2ccc(F)cc2)C1` (stereo unspecified) showed a melting point of 242 to 243 °C.

The compound `CCC(O)Cn1cc(-c2cccc(C(F)(F)F)c2)cn1` (stereo unspecified) registered a melting point of 77 to 79 °C.

For the compound `CNC(=O)c1ncc2[nH]c3cccc(Oc4ccc(Cl)cc4)c3c2c1COC`, the melting point was 236 °C.

In turn, `COc1cc(C(F)(F)F)cc(OC)c1-c1ccc(C[C@H](NC(=O)c2c(Cl)cccc2Cl)C(=O)O)cc1` yielded a melting point of 231 to 232 °C.

Source of the values: a melting point compilation (Tetko et al.; mined from patent text by program, amines drawn as free bases though some values may be those of a salt).
